Measured values from ChEMBL document CHEMBL5104140, “Bicyclic pyrimidine compounds as potent IRAK4 inhibitors” (Bioorg Med Chem Lett, 2022).

What was measured:
THP-1 = assay: Antiinflammatory activity against human THP-1 cells assessed as inhibition of LPS induced IL-23 production; assay type: functional, cell-based
[1] = biological target: T1, Interleukin-1 receptor-associated kinase 4 (Homo sapiens, UniProt Q9NWZ3); assay: Inhibition of IRAK4 (unknown origin)
T1 sequence (Q9NWZ3 whole entry): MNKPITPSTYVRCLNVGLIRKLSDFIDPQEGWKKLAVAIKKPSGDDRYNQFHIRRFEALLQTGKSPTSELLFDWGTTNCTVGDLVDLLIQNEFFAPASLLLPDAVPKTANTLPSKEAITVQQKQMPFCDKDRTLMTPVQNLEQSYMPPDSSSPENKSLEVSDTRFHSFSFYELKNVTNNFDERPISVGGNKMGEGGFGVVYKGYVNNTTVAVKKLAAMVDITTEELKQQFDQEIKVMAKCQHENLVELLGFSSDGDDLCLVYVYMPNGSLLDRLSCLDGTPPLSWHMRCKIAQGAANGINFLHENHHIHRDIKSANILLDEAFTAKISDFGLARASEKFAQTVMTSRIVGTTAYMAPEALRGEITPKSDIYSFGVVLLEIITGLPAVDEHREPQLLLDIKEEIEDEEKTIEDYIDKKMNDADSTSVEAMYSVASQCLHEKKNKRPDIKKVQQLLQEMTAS

[2] = Antiinflammatory activity against human dendritic cells assessed as inhibition of LPS induced IL-23 production; assay type: functional, cell-based; conditions: Dendritic cell
PAD = assay: Induction of PAD activity against human A549 cells; assay type: toxicity, cell-based
[3] = Clearance in rat at 1 mg/kg, iv; assay type: ADME, organism-based; conditions: in vivo
[4] = Oral bioavailability in rat at 5 mg/kg; assay type: ADME, organism-based; conditions: in vivo
Mus musculus = assay: Antiinflammatory activity against mouse assessed as inhibition of IL-1 beta-stimulated IL-6 expression at 75 mg/kg; assay type: functional
[5] = Plasma concentration in mouse at 75 mg/kg measured after 0.5 hrs; assay type: ADME, organism-based

| SMILES | IC50 (THP-1) [µM] | IC50 [1] [µM] | IC50 [2] [µM] | clearance [3] [mL/min/kg] | bioavailability [4] [%] | concentration at 0.5 h [5] [ng/mL] | IC50 (PAD) [µM] | inhibition in vivo at 75 mg/kg (Mus musculus) [%] |
| --- | --- | --- | --- | --- | --- | --- | --- | --- |
| NC(=O)[C@@H]1[C@H](Nc2nc(Nc3ccc(C(=O)N4CCOCC4)cc3)nc3ccsc23)[C@H]2C=C[C@@H]1C2 | 0.07 | 0.014 | 0.03 | – | – | – | 1.1 | – |
| NC(=O)[C@@H]1[C@H](Nc2nc(Nc3ccc(F)c(N4CCOCC4)c3)nc3ccsc23)[C@H]2C=C[C@@H]1C2 | 0.24 | 0.095 | – | 52 | 23 | – | 2.5 | – |
| NC(=O)[C@@H]1[C@H](Nc2nc(Nc3cc(F)cc(N4CCOCC4)c3)nc3ccn(C(F)F)c23)[C@H]2C=C[C@@H]1C2 | 0.22 | 0.009 | 0.26 | 10 | 37 | – | 1 | 0 |
| NC(=O)[C@@H]1[C@H](Nc2nc(Nc3ccnc(N4CCOCC4)c3)nc3ccsc23)[C@H]2C=C[C@@H]1C2 | 0.08 | 0.01 | 0.1 | 132 | 12 | – | 2.7 | – |
| NC(=O)[C@@H]1[C@H](Nc2nc(Nc3ccc(C(=O)N4CCCC4)cc3)nc3ccsc23)[C@H]2C=C[C@@H]1C2 | 0.07 | 0.01 | 0.04 | – | – | – | 0.56 | – |
| Cc1c[nH]c2nc(Nc3cccc(C(=O)N4CCCC4)c3)nc(N[C@H]3[C@@H](C(N)=O)[C@@H]4C=C[C@H]3C4)c12 | 0.02 | 0.008 | – | – | – | – | 0.08 | – |
| NC(=O)[C@@H]1[C@H](Nc2nc(Nc3cccc(C(=O)N4CCCC4)c3)nc3ccccc23)[C@H]2C=C[C@@H]1C2 | 0.25 | 0.005 | 0.49 | 102 | – | – | 7.5 | – |
| Cc1n[nH]c2nc(Nc3cc(F)cc(N4CCOCC4)c3)nc(N[C@H]3[C@@H](C(N)=O)[C@@H]4C=C[C@H]3C4)c12 | 0.037 | 0.005 | – | 47 | 7 | – | 0.26 | – |
| NC(=O)[C@@H]1[C@H](Nc2nc(Nc3cccc(C(=O)N4CCCC4)c3)nc3cn[nH]c23)[C@H]2C=C[C@@H]1C2 | 9.4 | 0.017 | – | – | – | – | > 100 | – |
| NC(=O)[C@@H]1[C@H](Nc2nc(Nc3ccc(F)c(C(=O)N4CCCC4)c3)nc3ccsc23)[C@H]2C=C[C@@H]1C2 | 0.27 | 0.003 | 0.08 | 92 | – | – | 8 | – |
| NC(=O)[C@@H]1[C@H](Nc2nc(Nc3cccc(C(=O)N4CCCC4)c3)nc3[nH]ncc23)[C@H]2C=C[C@@H]1C2 | 0.29 | 0.004 | 0.48 | 124 | – | – | 5.8 | – |
| NC(=O)[C@@H]1[C@H](Nc2nc(Nc3cc(F)cc(C(=O)N4CCCC4)c3)nc3ccsc23)[C@H]2C=C[C@@H]1C2 | 0.06 | 0.002 | 0.05 | 141 | – | – | 1.8 | – |
| NC(=O)[C@@H]1[C@H](Nc2nc(Nc3cc(F)cc(N4CCOCC4)c3)nc3ncsc23)[C@H]2C=C[C@@H]1C2 | 2.6 | 0.018 | – | – | – | – | 7.5 | – |
| NC(=O)[C@@H]1[C@H](Nc2nc(Nc3cccc(C(=O)N4CCOCC4)c3)nc3ccsc23)[C@H]2C=C[C@@H]1C2 | 0.15 | 0.006 | 0.08 | 113 | – | – | 4.9 | – |
| CN1CCN(c2cc(Nc3nc(N[C@H]4[C@@H](C(N)=O)[C@@H]5C=C[C@H]4C5)c4sccc4n3)ccc2F)CC1 | 0.51 | 0.05 | – | – | – | – | 2 | – |
| Cn1ncc2nc(Nc3cccc(C(=O)N4CCCC4)c3)nc(N[C@H]3[C@@H](C(N)=O)[C@@H]4C=C[C@H]3C4)c21 | 0.9 | 0.004 | – | – | – | – | 10 | – |

Continued by falling IC50 (THP-1), values first:

| IC50 (THP-1) [µM] | IC50 [1] [µM] | IC50 [2] [µM] | clearance [3] [mL/min/kg] | bioavailability [4] [%] | concentration at 0.5 h [5] [ng/mL] | SMILES | IC50 (PAD) [µM] | inhibition in vivo at 75 mg/kg (Mus musculus) [%] |
| --- | --- | --- | --- | --- | --- | --- | --- | --- |
| 11 | 0.711 | – | – | – | – | NC(=O)[C@@H]1[C@H](Nc2nc(Nc3cc(C(=O)N4CCCC4)ccc3F)nc3ccsc23)[C@H]2C=C[C@@H]1C2 | 14 | – |
| 4.7 | 0.098 | – | 143 | – | – | O=C(c1cccc(Nc2nc(NC3C[C@@H]4CC[C@H]3C4)c3sccc3n2)c1)N1CCC(F)C1 (some centres undefined) | 3.5 | – |
| 3.8 | 0.006 | 1.4 | – | – | – | NC(=O)[C@@H]1[C@H](Nc2nc(Nc3cccc(C(=O)N4CCCC4)c3)nc3cc[nH]c23)[C@H]2C=C[C@@H]1C2 | > 100 | – |
| 0.5 | 0.0041 | 1.3 | – | – | – | CC(C)n1ncc2ccc(Nc3nc(N[C@H]4[C@@H](C(N)=O)[C@@H]5C=C[C@H]4C5)c4c(ccn4C)n3)cc21 | 3.3 | – |
| 0.42 | 0.0027 | 0.92 | – | – | – | CC(C)n1ccc2nc(Nc3ccc4cnn(C(C)C)c4c3)nc(N[C@H]3[C@@H](C(N)=O)[C@@H]4C=C[C@H]3C4)c21 | 2.6 | – |
| 0.28 | 0.003 | 7.3 | 105 | – | – | NC(=O)[C@@H]1[C@H](Nc2nc(Nc3cccc(C(=O)N4CCCC4)c3)nc3ncsc23)[C@H]2C=C[C@@H]1C2 | 4 | – |
| 0.26 | 0.017 | 0.99 | 104 | – | – | NC(=O)[C@H]1CCC[C@H]1Nc1nc(Nc2cccc(C(=O)N3CCCC3)c2)nc2ccsc12 | > 100 | – |
| 0.24 | 0.019 | 1.5 | 56 | – | – | NC(=O)c1ccccc1Nc1nc(Nc2cccc(C(=O)N3CCCC3)c2)nc2ccsc12 | 6.4 | – |
| 0.22 | 0.003 | 0.09 | 101 | – | – | NC(=O)[C@@H]1[C@H](Nc2nc(Nc3cccc(C(=O)N4CCCC4)c3)nc3ccoc23)[C@H]2C=C[C@@H]1C2 | 5.8 | – |
| 0.2 | 0.206 | – | – | – | – | NC(=O)[C@@H]1[C@H](Nc2nc(Nc3ccnc(N4CCCC4)c3)nc3ccsc23)[C@H]2C=C[C@@H]1C2 | 2.6 | – |
| 0.2 | 0.005 | 0.2 | 180 | – | – | NC(=O)[C@@H]1[C@H](Nc2nc(Nc3cccc(C(=O)N4CCCC4)c3)nc3[nH]cnc23)[C@H]2C=C[C@@H]1C2 | 4 | – |
| 0.13 | 0.002 | 0.04 | 88 | 8 | 410 | NC(=O)[C@@H]1[C@H](Nc2nc(Nc3cccc(C(=O)N4CCCC4)c3)nc3ccn(C(F)F)c23)[C@H]2C=C[C@@H]1C2 | 1.5 | 0 |
| 0.13 | 0.004 | 0.26 | 58 | 1 | – | Cn1ccc2nc(Nc3cccc(C(=O)N4CCCC4)c3)nc(N[C@H]3[C@@H](C(N)=O)[C@@H]4C=C[C@H]3C4)c21 | 9.4 | – |
| 0.11 | 0.012 | 0.23 | 40 | 24 | – | NC(=O)[C@@H]1[C@H](Nc2nc(Nc3cc(F)cc(N4CCOCC4)c3)nc3ccsc23)[C@H]2C=C[C@@H]1C2 | 2.3 | 30 |
| 0.09 | 0.015 | 0.04 | 82 | 3 | – | NC(=O)[C@@H]1[C@H](Nc2nc(Nc3cccc(C(=O)N4CCC(F)C4)c3)nc3ccsc23)[C@H]2C=C[C@@H]1C2 (some centres undefined) | 2.7 | – |
| 0.08 | 0.007 | 0.06 | 242 | < 1 | – | CN1CCN(c2cc(Nc3nc(N[C@H]4[C@@H](C(N)=O)[C@@H]5C=C[C@H]4C5)c4sccc4n3)ccn2)CC1 | 1.7 | – |
| 0.08 | 0.003 | 0.09 | 63 | 27 | 65 | Cc1n[nH]c2nc(Nc3cccc(C(=O)N4CCCC4)c3)nc(N[C@H]3[C@@H](C(N)=O)[C@@H]4C=C[C@H]3C4)c12 | 1.6 | 0 |
| 0.08 | 0.012 | 0.1 | 99 | 16 | – | CN1CCN(c2cc(F)cc(Nc3nc(N[C@H]4[C@@H](C(N)=O)[C@@H]5C=C[C@H]4C5)c4sccc4n3)c2)CC1 | 1.5 | – |
| 0.05 | 0.049 | 0.19 | – | – | – | NC(=O)[C@@H]1[C@H](Nc2nc(Nc3ccc(OCCN4CCCC4)cc3)nc3ccsc23)[C@H]2C=C[C@@H]1C2 | 0.61 | – |
| 0.04 | 0.011 | 0.05 | 100 | – | – | NC(=O)[C@@H]1[C@H](Nc2nc(Nc3cccc(C(=O)N4CCCC4)c3)nc3[nH]ccc23)[C@H]2C=C[C@@H]1C2 | 0.42 | – |
